Assay results from patent publication US9592221B2, “Antibacterial agents: aryl myxopyronin derivatives” (priority 2012, dated 2017).
Values after ≈ are worked out from the molar mass of the structure shown.

Key:
[1] = tested on: Escherichia coli D21f2tolC; test: MIC, spiral gradient endpoint assay, E. coli D21f2tolC; format: cell-based; conditions: for MIC: Escherichia coli, D21F2TOLC, read-out: MIC E. coli D21f2toIC
[2] = tested on: Staphylococcus aureus ATCC 12600; test: MIC, spiral gradient endpoint assay, S. aureus ATCC 12600; format: cell-based; conditions: ATCC12600; for MIC: Staphylococcus aureus ATCC 12600
[3] = tested on: methicillin-resistant Staphylococcus aureus (MRSA) strain BAA-1707 (USA-400; MW2); test: MIC, spiral gradient endpoint assay, MRSA BAA-1707; format: cell-based; conditions: for MIC: Staphylococcus aureus, read-out: MIC S. aureus MRSA BAA-1707
Brucella melitensis 16M = test: microbe, parasite or virus in culture; format: cell-based; conditions: for MIC: Brucella melitensis, 16M, read-out: MIC B. melitensis 16M
[4] = target: E. coli RNA polymerase σ^70 holoenzyme (Escherichia coli, UniProt P0A8T7+P0A8V2); test: Fluorescence-detected RNA polymerase assay, E. coli RNA polymerase; format: biochemical; conditions: read-out: IC50 E. coli RNAP
[5] = tested on: Bacillus anthracis Vollum 1b; test: microbe, parasite or virus in culture; format: cell-based; conditions: for MIC: Bacillus anthracis, VOLLUM1B, read-out: MIC B. anthracis Vollum-1b
Yersinia pestis C092 = test: microbe, parasite or virus in culture; format: cell-based
[6] = tested on: Acinetobacter baumannii ATCC 19606; test: MIC, spiral gradient endpoint assay, A. baumannii; format: cell-based; conditions: for MIC: ATCC19606
[7] = tested on: Mycobacterium tuberculosis H37Rv; test: MIC, microplate Alamar Blue assay, M. tuberculosis; format: cell-based
[8] = tested on: methicillin-resistant Staphylococcus aureus (MRSA) strain BAA-1717 (USA-300); test: MIC, spiral gradient endpoint assay, MRSA BAA-1717; format: cell-based; conditions: for MIC: Staphylococcus aureus, read-out: MIC S. aureus MRSA BAA-1717
[9] = tested on: Francisella tularensis SCHU4; test: microbe, parasite or virus in culture; format: cell-based; conditions: for MIC: Francisella tularensis, SCHU4, read-out: MIC F. tularensis SCHU4
Burkholderia mallei CHN7 = test: microbe, parasite or virus in culture; format: cell-based; conditions: for MIC: Burkholderia mallei, CHN7, read-out: MIC B. mallei CHN7
[10] = tested on: rifampin-resistant Staphylococcus aureus (RRSA) strain ATCC 12600-Rif (H526N); test: MIC, spiral gradient endpoint assay, RRSA 12600-Rif; format: cell-based; conditions: for MIC: Staphylococcus aureus, ATCC12600, read-out: MIC S. aureus RRSA 12600-Rif
[11] = tested on: Burkholderia pseudomallei Human/Blood/OH/US/1994; test: microbe, parasite or virus in culture; format: cell-based; conditions: for MIC: Burkholderia pseudomallei, read-out: MIC B. pseudomallei Human/Blood/OH
[12] = tested on: methicillin-resistant Staphylococcus aureus (MRSA) strain BAA-1707 (USA-400, MW2); test: Antibacterial efficacy in mouse model of Staphylococcus aureus systemic infection (peritonitis model); format: in vivo, Swiss Webster mice; conditions: mice
[13] = tested on: linezolid-resistant Staphylococcus aureus (LRSA) strain NRS 120; test: MIC, spiral gradient endpoint assay, LRSA NRS 120; format: cell-based; conditions: for MIC: Staphylococcus aureus, NRS120, read-out: MIC S. aureus LRSA NRS120
[14] = tested on: vancomycin-intermediate Staphylococcus aureus (VISA) strain NRS 1; test: MIC, spiral gradient endpoint assay, VISA NRS 1; format: cell-based; conditions: for MIC: Staphylococcus aureus, read-out: MIC S. aureus VISA NRS1
[15] = target: M. tuberculosis RNA polymerase core enzyme, M. tuberculosis σ^A (Mycobacterium tuberculosis, UniProt P9WGY7+P9WGY9); test: Fluorescence-detected RNA polymerase assay, M. tuberculosis RNA polymerase; format: biochemical; conditions: read-out: IC50 M. tuberculosis RNAP
[16] = target: S. aureus RNA polymerase core enzyme, S. aureus σ^A (Staphylococcus aureus, UniProt P47768+Q2G0N5); test: Fluorescence-detected RNA polymerase assay, S. aureus RNA polymerase; format: biochemical; conditions: read-out: IC50 S. aureus RNAP
Chain of S. aureus RNA polymerase core enzyme, S. aureus σ^A (Q2G0N5 whole entry): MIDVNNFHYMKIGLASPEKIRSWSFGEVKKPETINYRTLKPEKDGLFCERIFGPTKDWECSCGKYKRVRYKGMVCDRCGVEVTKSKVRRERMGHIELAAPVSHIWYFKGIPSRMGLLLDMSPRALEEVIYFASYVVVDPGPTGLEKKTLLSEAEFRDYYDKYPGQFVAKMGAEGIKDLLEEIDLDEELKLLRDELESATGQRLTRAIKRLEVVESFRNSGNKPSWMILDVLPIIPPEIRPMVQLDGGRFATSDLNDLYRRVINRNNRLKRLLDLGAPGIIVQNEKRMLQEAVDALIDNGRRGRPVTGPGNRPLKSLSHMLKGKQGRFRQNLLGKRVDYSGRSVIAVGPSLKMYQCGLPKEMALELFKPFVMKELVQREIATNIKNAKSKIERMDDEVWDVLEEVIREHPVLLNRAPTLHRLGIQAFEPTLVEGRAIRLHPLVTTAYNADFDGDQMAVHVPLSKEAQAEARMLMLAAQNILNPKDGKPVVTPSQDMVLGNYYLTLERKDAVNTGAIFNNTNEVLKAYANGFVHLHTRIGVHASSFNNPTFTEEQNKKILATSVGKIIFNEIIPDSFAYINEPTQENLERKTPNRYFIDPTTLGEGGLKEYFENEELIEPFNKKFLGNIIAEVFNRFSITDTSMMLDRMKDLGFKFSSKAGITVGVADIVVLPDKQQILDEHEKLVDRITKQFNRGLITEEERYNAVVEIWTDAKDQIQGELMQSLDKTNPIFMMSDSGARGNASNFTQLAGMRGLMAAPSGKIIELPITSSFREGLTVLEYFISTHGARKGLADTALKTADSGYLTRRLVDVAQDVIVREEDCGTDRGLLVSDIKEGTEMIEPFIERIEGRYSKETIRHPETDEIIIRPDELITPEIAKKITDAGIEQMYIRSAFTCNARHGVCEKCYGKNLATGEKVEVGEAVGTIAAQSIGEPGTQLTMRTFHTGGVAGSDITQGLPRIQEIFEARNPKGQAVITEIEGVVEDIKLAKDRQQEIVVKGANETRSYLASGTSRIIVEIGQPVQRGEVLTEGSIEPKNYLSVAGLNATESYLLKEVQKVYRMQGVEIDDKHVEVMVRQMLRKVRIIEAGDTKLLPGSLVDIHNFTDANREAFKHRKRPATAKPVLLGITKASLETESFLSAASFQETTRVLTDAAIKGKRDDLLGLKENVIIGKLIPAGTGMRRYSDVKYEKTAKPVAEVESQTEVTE
Chain of S. aureus RNA polymerase core enzyme, S. aureus σ^A (Q2FW32 whole entry, further chain): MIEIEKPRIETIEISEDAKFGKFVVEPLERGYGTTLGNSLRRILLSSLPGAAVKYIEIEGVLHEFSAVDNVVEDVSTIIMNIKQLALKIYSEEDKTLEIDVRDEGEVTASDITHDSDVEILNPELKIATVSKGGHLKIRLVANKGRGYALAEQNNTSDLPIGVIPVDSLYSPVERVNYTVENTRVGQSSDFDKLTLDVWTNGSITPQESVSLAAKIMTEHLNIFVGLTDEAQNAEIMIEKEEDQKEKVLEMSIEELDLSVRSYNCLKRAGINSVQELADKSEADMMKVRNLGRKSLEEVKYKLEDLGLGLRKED
Chain of S. aureus RNA polymerase core enzyme, S. aureus σ^A (P0A0J0 whole entry, further chain): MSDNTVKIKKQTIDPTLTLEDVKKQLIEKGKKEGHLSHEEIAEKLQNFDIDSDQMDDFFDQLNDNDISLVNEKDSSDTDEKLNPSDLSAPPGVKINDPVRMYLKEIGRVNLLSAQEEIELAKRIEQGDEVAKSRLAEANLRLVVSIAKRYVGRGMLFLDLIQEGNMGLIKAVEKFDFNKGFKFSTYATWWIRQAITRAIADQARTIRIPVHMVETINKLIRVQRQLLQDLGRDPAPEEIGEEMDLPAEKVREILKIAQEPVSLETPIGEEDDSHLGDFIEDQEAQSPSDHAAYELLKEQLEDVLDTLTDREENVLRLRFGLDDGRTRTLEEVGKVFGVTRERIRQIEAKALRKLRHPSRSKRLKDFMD
Chain of S. aureus RNA polymerase core enzyme, S. aureus σ^A (P47768 whole entry): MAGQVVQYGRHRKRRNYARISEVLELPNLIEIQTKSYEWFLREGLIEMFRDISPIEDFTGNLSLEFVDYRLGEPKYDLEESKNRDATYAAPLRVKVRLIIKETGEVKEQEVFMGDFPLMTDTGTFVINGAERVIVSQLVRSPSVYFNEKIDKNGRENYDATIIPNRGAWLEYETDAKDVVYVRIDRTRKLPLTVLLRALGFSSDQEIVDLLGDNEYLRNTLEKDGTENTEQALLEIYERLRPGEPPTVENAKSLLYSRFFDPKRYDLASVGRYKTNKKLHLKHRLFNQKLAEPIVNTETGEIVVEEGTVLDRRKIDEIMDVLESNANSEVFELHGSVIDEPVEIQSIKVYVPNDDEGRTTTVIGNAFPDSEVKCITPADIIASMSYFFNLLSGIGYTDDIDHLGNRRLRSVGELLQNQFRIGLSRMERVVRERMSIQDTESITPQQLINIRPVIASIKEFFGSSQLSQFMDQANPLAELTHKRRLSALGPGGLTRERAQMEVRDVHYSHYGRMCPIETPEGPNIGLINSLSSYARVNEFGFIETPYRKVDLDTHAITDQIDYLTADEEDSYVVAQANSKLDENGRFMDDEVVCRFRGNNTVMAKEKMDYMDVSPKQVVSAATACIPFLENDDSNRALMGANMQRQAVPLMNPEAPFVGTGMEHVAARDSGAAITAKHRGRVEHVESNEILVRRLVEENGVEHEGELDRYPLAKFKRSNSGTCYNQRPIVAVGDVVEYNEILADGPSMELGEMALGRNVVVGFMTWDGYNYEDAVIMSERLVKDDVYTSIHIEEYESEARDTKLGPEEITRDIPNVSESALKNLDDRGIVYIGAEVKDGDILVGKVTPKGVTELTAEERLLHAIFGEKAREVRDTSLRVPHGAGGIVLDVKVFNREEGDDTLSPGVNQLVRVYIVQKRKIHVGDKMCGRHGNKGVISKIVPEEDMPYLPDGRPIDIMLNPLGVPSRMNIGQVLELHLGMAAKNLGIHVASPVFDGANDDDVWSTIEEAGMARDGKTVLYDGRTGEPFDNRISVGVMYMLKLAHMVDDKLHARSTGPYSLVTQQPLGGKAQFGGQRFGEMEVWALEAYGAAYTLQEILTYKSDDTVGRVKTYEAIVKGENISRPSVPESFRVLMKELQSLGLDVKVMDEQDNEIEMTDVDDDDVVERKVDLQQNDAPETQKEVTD

[17] = Acinetobacter baumannii ATCC 19606
[18] = intravenous administration 0 h post-infection
[19] = oral administration 1 h pre-infection

Row | SMILES | MIC [1] [µg/mL] | MIC [2] [µg/mL] | MIC [3] [µg/mL] | MIC (Brucella melitensis 16M) [µg/mL] | IC50 [4] [nM] | MIC [5] [µg/mL] | MIC [6, 17] [µg/mL] | MIC [7] [µg/mL] | MIC [8] [µg/mL] | MIC [9] [µg/mL] | MIC (Burkholderia mallei CHN7) [µg/mL] | MIC [10] [µg/mL] | MIC [11] [µg/mL] | PD50 [12, 18] [mg/kg] | IC50 [15] [nM] | IC50 [16] [nM] | further results
1 | CCCCc1ccc(C=C(C)C(=O)c2c(O)cc(C(C)CC/C=C/NC(=O)OC)oc2=O)cc1 (mixture of isomers) [APY41, methyl (E)-5-(3-((E/Z)-3-(4-butylphenyl)-2-methylacryloyl)-4-hydroxy-2-oxo-2H-pyran-6-yl)hex-1-enylcarbamate] | < 0.2 | 0.8 | 0.6 | 0.8 | 8 | 2 | > 40 | 3 | 0.6 | 6 | 6 | 0.9 | 10 |  |  |  | MIC (Yersinia pestis C092; Yersinia pestis, C092, read-out: MIC Y. pestis C092): 30 µg/mL
2 | COC(=O)N/C=C/CCC(C)c1cc(O)c(C(=O)C(C)=Cc2ccc(CC(C)C)s2)c(=O)o1 (mixture of isomers) [APY60, methyl (E)-5-(4-hydroxy-5-((E/Z)-3-(5-isobutylthiophen-2-yl)-2-methylacryloyl)-6-oxo-6H-pyran-2-yl)hex-1-enylcarbamate] | 0.2 | 0.4 | 0.4 | 6 | 10 | 3 | 9 | 10 | 0.5 | 10 | 30 | 0.7 | 30 | 20 |  |  | 
3 | COC(=O)N/C=C/CCC(C)c1cc(O)c(C(=O)C(C)=Cc2ccc(CCC(F)(F)F)s2)c(=O)o1 (mixture of isomers) [APY61, methyl (E)-5-(5-((E/Z)-3-(5-(3,3,3-trifluoropropyl)thiophen-2-yl)-2-methylacryloyl)-4-hydroxy-6-oxo-6H-pyran-2-yl)hex-1-enylcarbamate] | 0.2 | 0.7 | 0.9 | > 50 | 20 | 6 | 10 | 10 | 0.9 | 30 | 30 | 1 | 30 | 20 |  |  | MIC [13]: 0.4 µg/mL; MIC [14]: 0.4 µg/mL
4 | COC(=O)N/C=C/CCC(C)c1cc(O)c(C(=O)C(C)=Cc2ccc(CCCC(F)(F)F)s2)c(=O)o1 (mixture of isomers) [APY81, methyl ((1E)-5-(4-hydroxy-3-(2-methyl-3-(5-(4,4,4-trifluorobutyl)thiophen-2-yl)acryloyl)-2-oxo-2H-pyran-6-yl)hex-1-en-1-yl)carbamate] | 0.08 | 0.4 | 0.5 | 2 | 10 | 2 | 20 | 10 | 0.9 | 30 | 10 | 0.8 | 10 |  | 50 | 30 | 
5 | COC(=O)N/C=C/CCCc1cc(O)c(C(=O)C(C)=Cc2ccc(CCCC(F)(F)F)s2)c(=O)o1 (mixture of isomers) [APY90, methyl ((1E)-5-(4-hydroxy-3-(2-methyl-3-(5-(4,4,4-trifluorobutyl)thiophen-2-yl)acryloyl)-2-oxo-2H-pyran-6-yl)pent-1-en-1-yl)carbamate] | 0.07 | 0.9 | 2 |  | 30 |  | 10 | 10 | 2 |  |  | 2 |  |  | 300 | 800 | 
6 | COC(=O)N/C=C/CCCc1cc(O)c(C(=O)C(C)=Cc2ccc(CCC(C)C)s2)c(=O)o1 (mixture of isomers) [APY91, methyl ((1E)-5-(4-hydroxy-3-(3-(5-isopentylthiophen-2-yl)-2-methylacryloyl)-2-oxo-2H-pyran-6-yl)pent-1-en-1-yl)carbamate] | 0.08 | 0.7 | 2 |  | 20 |  | 9 | 50 | 2 |  |  | 2 |  |  | 400 | 600 | 
7 | COC(=O)N/C=C/CCC(C)c1cc(O)c(C(=O)C(C)=Cc2ccc(CCC3CC3)s2)c(=O)o1 (mixture of isomers) [APY95, methyl ((1E)-5-(3-(3-(5-(2-cyclopropylethyl)thiophen-2-yl)-2-methylacryloyl)-4-hydroxy-2-oxo-2H-pyran-6-yl)hex-1-en-1-yl)carbamate] | 0.1 | 0.8 | 0.3 |  | 5 |  | 10 | 10 | 0.4 |  |  | 0.5 |  |  | 50 |  | 
8 | COC(=O)N/C=C/CCC(C)c1cc(O)c(C(=O)C(C)=Cc2ccc(OC(C)C)s2)c(=O)o1 (mixture of isomers) [APY107, methyl ((1E)-5-(4-hydroxy-3-(3-(5-isopropoxythiophen-2-yl)-2-methylacryloyl)-2-oxo-2H-pyran-6-yl)hex-1-en-1-yl)carbamate] | 0.1 | 2 | 2 |  | 20 |  | > 40 | 10 | 2 |  |  | 2 |  |  | 400 |  | 
9 | CCOCc1ccc(C=C(C)C(=O)c2c(O)cc(C(C)CC/C=C/NC(=O)OC)oc2=O)s1 (mixture of isomers) [APY108, methyl ((1E)-5-(3-(3-(5-(ethoxymethyl)thiophen-2-yl)-2-methylacryloyl)-4-hydroxy-2-oxo-2H-pyran-6-yl)hex-1-en-1-yl)carbamate] | 0.4 | 10 | 20 |  | 300 |  | > 40 | 30 | 20 |  |  | 20 |  |  | 700 |  | 
10 | CCCOCc1ccc(C=C(C)C(=O)c2c(O)cc(C(C)CC/C=C/NC(=O)OC)oc2=O)s1 (mixture of isomers) [APY109, methyl ((1E)-5-(4-hydroxy-3-(2-methyl-3-(5-(propoxymethyl)thiophen-2-yl)acryloyl)-2-oxo-2H-pyran-6-yl)hex-1-en-1-yl)carbamate] | 0.2 | 3 | 7 |  | 80 |  | > 40 | 30 | 7 |  |  | 7 |  |  | 800 |  | 
11 | COC(=O)N/C=C/CCC(C)c1cc(O)c(C(=O)C(C)=Cc2ccc(OCC(F)(F)F)s2)c(=O)o1 (mixture of isomers) [APY116, methyl ((1E)-5-(4-hydroxy-3-(2-methyl-3-(5-(2,2,2-trifluoroethoxy)thiophen-2-yl)acryloyl)-2-oxo-2H-pyran-6-yl)hex-1-en-1-yl)carbamate] | 0.2 | 1 | 2 |  | 30 |  | > 40 | 6 | 2 |  |  | 2 |  | 20 |  |  | MIC [13]: 0.8 µg/mL; PD50 [12, 19]: 50 mg/kg; MIC [14]: 0.7 µg/mL
12 | CCCC/C(C)=C/C=C(\C)C(=O)c1c(O)cc([C@H](C)CC/C=C/NC(=O)OC)oc1=O [Myx B, myxopyronin B, reference compound] |  |  |  |  | 10 |  |  |  |  |  |  |  |  | 20 | 100 | 70 | MIC E. coli D21f2toIC ([1]; Escherichia coli D21f2tolC): 0.1 µg/mL (≈ 0.232 µM); MIC S. aureus 12600 ([2]; Staphylococcus aureus): 0.8 µg/mL (≈ 1.85 µM); MIC S. aureus MRSA BAA-1707 [3]: 0.9 µg/mL (≈ 2.09 µM); MIC S. aureus LRSA NRS120 [13]: 0.5 µg/mL (≈ 1.16 µM); MIC B. melitensis 16M (Brucella melitensis 16M): 2 µg/mL (≈ 4.63 µM); MIC B. anthracis Vollum-1b [5]: 6 µg/mL (≈ 13.9 µM); MIC Y. pestis C092 (Yersinia pestis C092): 50 µg/mL (≈ 116 µM); inhibition of Acinetobacter baumannii (in words) [6]: does not inhibit; MIC A. baumannii 19606 [6, 17]: >40 µg/mL; MIC M. tuberculosis H37Rv [7]: 2 µg/mL (≈ 4.63 µM); MIC S. aureus MRSA BAA-1717 [8]: 0.8 µg/mL (≈ 1.85 µM); MIC F. tularensis SCHU4 [9]: 2 µg/mL (≈ 4.63 µM); PD50 [12, 19]: 50 mg/kg; MIC B. mallei CHN7 (Burkholderia mallei CHN7): 6 µg/mL (≈ 13.9 µM); MIC S. aureus RRSA 12600-Rif [10]: 1 µg/mL (≈ 2.32 µM); MIC B. pseudomallei Human/Blood/OH [11]: 30 µg/mL (≈ 69.5 µM); MIC S. aureus VISA NRS1 [14]: 0.5 µg/mL (≈ 1.16 µM)
